In patent EP2444396A1, “PHOTOPROTECTIVE COMPOSITION” (Apoteknos Para La Piel, S.L., priority 2009, dated 2010):
Where “and” joins values, the source holds several entries; their conditions need not be identical. Identical values can stand only once.

Tests used:
[1] = system: Erythema induced by UVB radiation in mouse; assay: Photoprotection: erythema induced by UVB radiation in mouse skin; assay type: in vivo; design: key to Erythema induced by UVB radiation in mouse: presence (+); absence (-); conditions: individual animals No. 1-10; 0.5% gel topical, about 2.5 kJ/m^2 UVB, 24 hours after exposure
Excerpt: The effect of p-nitrolophine and m-nitrolophine on erythema due to exposing the mouse skin to an irradiation source at maximum in the UVB region has been studied in these assays. The results obtained have been compared with the effect of 4-methylbenzylidene camphor (P5000) a substance considered as a UVB solar filter and with the effect of butyl methoxydibenzoylmethane (P1789) an UVA type filter, both products being commonly used in antisolar cosmetics.
35 male mice weighing more than 20 grams have been used. After receiving them, the animals were acclimated for 7 days at the place where the assays were preformed, they were being placed in a cage with controlled temperature (22°C), with relative humidity between 50% and 75%, replacing fresh filtered air approximately 10 times per hour and with 12 h light/dark cycles (7.00 - 19.00 light and from 19.00 to 7.00 dark). For this period and during the experimental period, the animals were fed ad libitum with standard diet for rodents and running water as drink.
The animals were randomly distributed into 4 experimental groups according to Table 7. The products to be tested were directly used, applying them in the form of a gel on an area of the skin such that each animal form its own control.
The test was performed following the method described by Winder et al. ["A study of Pharmacological influences on ultraviolet erythema in guinea pigs". Arch. Int Pharmacodyn, 116:261-292; 1958] and by other authors [Wendy et al. "The local antinociceptive and topical antiinflamatory effects of propyl gallate in rodents". Br. J. Pharmacol, 58:573 -581; 1976; Katiyar et al. "Protective Effects of Silymarin Against Photocarcinogenesis in a Mouse Skin Model". J Natl Cancer Inst 89:556-65; 1997] with slight modifications. The day […] the assay, as much hair as possible were removed from the animals by applying a layer of commercial hair-removing cream to remove all the trace of hair and to leave the skin of the back completely bare. The rest of the hair-removing cream were removed by means of washing and rinsing with running water and the animals were the returned to their corresponding cages where they remained until the following day.
On the day of the assay, the substances to be assayed were blindly applied on the back of the previously labelled animals following a random pattern (randomized). After applying the corresponding treatments, the animals were placed and pinned to the presentation platform of the equipment. The animals were then placed 8 cm from an ultraviolet light source of 4*40w with 313 nm of fundamental emission and a range comprised approximately between 290 and 350 nm and with an anti-UVC filter. The emission spectrum of said light source is depicted in Figure 1.
The exposure was maintained until all the animals have received an approximate total dose of 2.5 kJ/m^2. The dose of irradiation applied was determined by means of a ultraviolet light detector, the response curve of which is shown in Figure 2.
Twenty four hours after ending the exposure, the back of the animals was photographed and they were returned to their cages. The evaluation of erythema was performed by means of a positive/negative criterion, the percentage of protected animals being obtained. The statistic significance of the difference was evaluated by means of the non-parametric Fisher Test.

[2] = UV spectrum: wavelengths of maximum absorption and absorbance (Cecil 2021 UV-Visible Spectrophotometer); assay type: physicochemical
[3] = Photostability evaluation (irradiation in MeOH, TLC analysis); assay type: physicochemical; conditions: MeOH, irradiated for 2 hours, 450W lamp; approximate estimation of the total sum of photoproducts
Procedure: All the irradiations preformed in the photostability studies were carried out in an ACE 7840 photoreactor using a 450W power ACE 7825 lamp.
The solvent used in the photostability test was methanol [MeOH] (ppa) (250 mL), using a concentration of […] of p-nitrolophine. The solution was irradiated for 2 hours, samples being taken at 10 minutes, 20 minutes, 1 hour and 2 hours, and being dried in a rotating evaporator. Each sample was analyzed by thin layer chromatography (TLC in Silica gel) using petroleum ether:ethyl acetate (4:1) as eluent. The chromatography plates were viewed under a 254 nm lamp and a 366 nm lamp, as well as by means of simultaneous viewing under both lamps (254 and 366 nm).
Specifically, three photoproducts (three blots) could be determined, which were isolated by preparative TLC.
A saturated solution of m-nitrolophine in MeOH was prepared to perform the study since the solubility in this solvent is low (approximately 0.2 mg/mL). Briefly, an amount of m-nitrolophine sufficient to ensure the saturation in 200 mL of MeOH throughout the night was left stirring. The solution was filtered and irradiated for 2 hours, samples of 10 mL being taken at 10 minutes, 20 minutes, 1 hour and 2 hours, and being dried in rotating evaporator. […]

O=[N+]([O-])c1ccc(-c2nc(-c3ccccc3)c(-c3ccccc3)[nH]2)cc1 [p-nitrolophine, 2-(4-nitrophenyl)-4,5-diphenyl-1H-imidazole]
Erythema induced by UVB radiation in mouse [1]: -
UV spectrum A (a.u) ([2]; absorbance at the maximum of the same line): 0.715 a.u and 0.669 a.u and 0.774 a.u
UV spectrum λ (nm) ([2]; wavelengths of the maximum absorption): 221.0 nm and 255.0 nm and 379.0 nm
degradation [3]: lower than 5%
